# Reference: PMC12457078, “Inhibition of soluble epoxide hydrolase in endotoxin induced pig lung injury” (Frontiers in Pharmacology, 2025)
# “And” between values parts separate entries of the source, which are not always exact repeats. Equal values may be shown once. “Also recorded” adds a separate entry of the source.
# Test system: endotoxin-induced lung injury
# Assay: porcine model of LPS-induced acute lung injury: haemodynamics, ventilation/mechanics, blood gases, P/F, chemistry, temperature, survival
# Type: in vivo, pig
# Set-up: AF baseline / AF end / Ven. sat end: unit not given here; PaO2 3 h / PaO2 6 h: unit: kPa
# Protocol: The animals were bred for purpose at the Forslunda Agricultural School in Umeå, Sweden. The pigs were pairwise kept in 8 m^2 pens before start of experiments and were fed twice daily with a commercially available pig diet without antimicrobials, and with free access to water. Photoperiods were 12:12 h light:dark. Room temperature in their stall was 20 °C ± 1 °C.
# After overnight fasting, but with free access to water and hay, animals were pre-medicated with ketamine (Ketaminol vet® 100 mg/mL; Intervet International B.V, Boxmeer, Netherlands), xylazine (Rompun® vet 20 mg/mL; Bayer Animal Health, Copenhagen, Denmark) and atropine (Atropin Mylan 0.5 mg/mL; Mylan AB, Stockholm, Sweden) by intramuscular injection before an auricular vein was cannulated. Anesthesia was induced with ketamine and midazolam (Midazolam Hameln 5 mg/mL, Hameln Pharmaceuticals, Hameln, Germany) and maintained with ketamine, midazolam, xylazine and fentanyl (Fentanyl 0.05 mg/mL, B. Braun Medical AB, Danderyd, Sweden). The animals were orotracheally intubated and ventilated with tidal volume 8–9 mL/kg, PEEP 8 cmH2O, and a respiratory rate set to achieve an end-tidal carbon dioxide of 5–5.5 kPa.
# One animal served as a pharmacokinetic pilot, with arterial and venous catheters placed in a cut-down in the neck. The remaining 21 animals were used for the randomized study (Figure 1). After intubation and start of mechanical ventilation, a second auricular vein cannula was placed and infusion of either AEPU or placebo according to randomization was started. After 2 h of infusion of AEPU or placebo, an infusion of LPS was started. A bolus of 0.1 mg/kg was administered during 30 min after which the infusion rate was adjusted to 0.01 mg/kg/h. During the time between start of AEPU or placebo and LPS infusion, neck dissection was performed, exposing the v jugularis externa and carotid artery. A pulmonary artery introducer and an arterial cannula were placed in vein and artery respectively, and a pulmonary artery catheter introduced through the introducer and the tip placed in the correct position in the pulmonary artery placement guided by continuous invasive pressure monitoring or, when difficult, assisted by fluoroscopy. All surgical procedures were performed under sterile conditions.
# AEPU was synthesized according to Kim et al. ([Kim et al., 2007]), delivered in 60 mg vials and dissolved in 30 mL pure ethanol as a co-solvent, of which either 20 mL was added to 980 mL of sodium chloride 9 mg/mL or 8 mL–392 mL sodium chloride, creating a solution of 0.04 mg/mL AEPU and 2% ethanol. The placebo infusion was prepared by adding either 20 mL of pure ethanol to 980 mL of sodium chloride 9 mg/mL or 8 mL of pure ethanol to 392 mL sodium chloride, creating a 2% ethanol solution. Each animal received an infusion of either 0.1 mg/kg/h AEPU or the corresponding volume of placebo solution.
# A total of 200 mg of prefabricated lipopolysaccharides (LPS, Escherichia coli serotype 0,111:B4, Sigma-Aldrich (Product no L4130), St. Louis, MO, United States of America) was dissolved in 40 mL of sterile water, carefully mixed and filtered, creating a solution of 5 mg/mL. This preparation was stored frozen (−20 °C) in 1 mL partitions. For each animal, 2 mL of the thawed solution was mixed and diluted in 18 mL of sodium chloride, finally creating a 0.5 mg/mL LPS solution for infusion.
# All animals were monitored with pulse oximetry, heart rate, ECG, systemic arterial blood pressure (ABP), pulmonary arterial pressure (PAP), central venous pressure (CVP) temperature, tidal volumes, respiratory rate and end tidal carbon dioxide. At baseline, and at 3 h, 6 h and at the end of the experiment, pulmonary capillary wedge pressure (PCWP) was measured together with arterial and venous blood gas analyses, as well as cardiac output calculations. […]
# [1] = 3 h, individual animals, listed as sEH-i 950
# [2] = 6 h, individual animals, listed as sEH-i 950
# [3] = Lungmekanik, 3 h, individual animals, listed as sEH-i 950
# [4] = Lungmekanik, 6 h, individual animals, listed as sEH-i 950
# [5] = Lungmekanik, baseline, individual animals, listed as sEH-i 950
# [6] = Lungmekanik, end, individual animals, listed as sEH-i 950
# [7] = baseline, individual animals, listed as sEH-i 950
# [8] = end, individual animals, listed as sEH-i 950
# [9] = individual animals, 3 h, listed as sEH-i 950
smiles,measurement,setting,value
CCOCCOCCOCCCCCNC(=O)NC12CC3CC(CC(C3)C1)C2 [Compound 950],AF 3 h,[1],41 and 50 and 42 and 48 and 30 and 45 and 39 and 44 and 40
same,FiO2 3 h,[1],0.4 and 0.5
same,PaO2 3 h,[1],22.1 and 20.1 and 17 and 22.7 and 19.3 and 16.7 and 9 and 8.1 and 7.3 and 14.7
same,AF 6 h,[2],40 and 54 and 50 and 48 and 30 and 45 and 39 and 44
same,FiO2 6 h,[2],0.4 and 0.5 and 0.8 and 0.7 and 1
same,PaO2 6 h,[2],19.6 and 12.3 and 11.8 and 18.6 and 18.5 and 14.7 and 8.7 and 9.4 and 6.8 and 7.9
same,lung injury development in LPS treated pigs,AEPU 0.1 mg/kg/h infusion vs placebo,did not attenuate
same,Premature death,"AEPU group, did not survive entire protocol",40%
same,Mortalitet: Aktivt avslut,"Ja = actively terminated, Nej = died, individual animals, listed as sEH-i 950",Nej and Ja and Nej*
same,PIP 3 h,[3],31 cmH2O and 28 cmH2O and 32 cmH2O and 24 cmH2O and 26 cmH2O and 34 cmH2O and 39 cmH2O and 44 cmH2O and 36 cmH2O
same,Pmedel 3 h,[3],14 cmH2O and 15 cmH2O and 12 cmH2O and 13 cmH2O and 16 cmH2O and 17 cmH2O
same,Pplat 3 h,[3],26 cmH2O and 23 cmH2O and 22 cmH2O and 27 cmH2O and 28 cmH2O and 25 cmH2O and 34 cmH2O and 33 cmH2O
same,PIP 6 h,[4],32 cmH2O and 33 cmH2O and 28 cmH2O and 30 cmH2O and 22 cmH2O
same,Pmedel 6 h,[4],13 cmH2O and 15 cmH2O and 14 cmH2O and 12 cmH2O
same,Pplat 6 h,[4],27 cmH2O and 26 cmH2O and 23 cmH2O and 21 cmH2O and 18 cmH2O
same,PIP baseline,[5],25 cmH2O and 23 cmH2O and 19 cmH2O and 24 cmH2O and 26 cmH2O and 27 cmH2O
same,Pmedel baseline,[5],12 cmH2O and 15 cmH2O and 13 cmH2O and 11 cmH2O and 14 cmH2O
same,Pplat baseline,[5],19 cmH2O and 16 cmH2O and 18 cmH2O and 22 cmH2O and 17 cmH2O
same,PIP end,[6],30 cmH2O and 37 cmH2O and 29 cmH2O and 28 cmH2O and 46 cmH2O
same,Pmedel end,[6],13 cmH2O and 16 cmH2O and 14 cmH2O
same,Pplat end,[6],24 cmH2O and 29 cmH2O and 22 cmH2O and 28 cmH2O
same,PaO2/FiO2 3h,"P/F-kvot, 3 h, individual animals, listed as sEH-i 950",55.25 and 40.2 and 42.5 and 56.75 and 48.25 and 41.75 and 22.5 and 16.2 and 18.25 and 36.75
same,PaO2/FiO2 6h,"P/F-kvot, 6 h, individual animals, listed as sEH-i 950",49 and 24.6 and 23.6 and 46.5 and 46.25 and 36.75 and 10.87 and 13.43 and 6.8 and 19.75
same,PaO2/FiO2 baseline,"P/F-kvot, baseline, individual animals, listed as sEH-i 950",73.75 and 71.5 and 73 and 67 and 72.75 and 65.25 and 70.5 and 72.25 and 61.75 and 74.75
same,PaO2/FiO2 end,"P/F-kvot, end, individual animals, listed as sEH-i 950",49.75 and 16.75 and 24 and 48.75 and 30.5 and 4.4 and 8.7
same,FiO2 baseline,"baseline, individual animals",0.4
same,AF baseline,[7],40 and 42 and 26 and 34 and 46
same,PaO2 baseline,[7],29.5 and 28.6 and 29.2 and 26.8 and 29.1 and 26.1 and 28.2 and 28.9 and 24.7 and 29.9
same,Mortalitet: Dödsorsak,"cause of death, individual animals, listed as sEH-i 950",Cirkulationssvikt; also recorded: Adrenalinet tog slut…; also recorded: *Tubbyte/Hypoxi; also recorded: Lungsvikt/Hypoxi
same,P/F 3h - baseline,"change of P/F from baseline to 3 h, individual animals, listed as sEH-i 950",-18.5 and -31.3 and -30.5 and -10.25 and -24.5 and -23.5 and -48 and -56.05 and -43.5 and -38
same,P/F 6h - baseline,"change of P/F from baseline to 6 h, individual animals, listed as sEH-i 950",-24.75 and -46.9 and -49.4 and -20.5 and -26.5 and -28.5 and -59.625 and -58.8214 and -54.95 and -55
same,P/F 9h- baseline,"change of P/F from baseline to 9 h (end), individual animals, listed as sEH-i 950",-24 and -54.75 and -49 and -18.25 and -34.75 and -66.1 and -63.55
same,"Mortalitet, kommentarer","comments on clinical course, individual animals, listed as sEH-i 950",Instabil. Död i högersvikt 16.20 trots adrenalin; also recorded: Tidig start adrenalininf pga lågt CO; also recorded: Mycket svårt septisk. Extrema doser adrenalin; also recorded: Mycket svårt septisk. Högersvikt; also recorded: Relativt stabil. Nästan frisk i slutet; also recorded: Försök till tubbyte -> hypoxi + död; also recorded: Standardupplägg. Ter sig septisk redan vid induktion; also recorded: Svårt septisk redan från första början. Instabil. Död i cirkulationssvikt något i förtid. Misslyckad deff; also recorded: Septisk. Kräver adrenalininf. Uttalad lungskada. Lågt CO på slutet. Högdos adrenalin. Svår hjärtsvikt; also recorded: Svår sepsis med ffa svår lungsvikt. Mors i hypoxi efter 6 h. Sista prov (6h) några minuter före död. PSVT upprepat med självterminerande vid LPS-bolus
same,Fluid administration total,"end of experiment, AEPU group",5785 (5080–7210) mL
same,Urine output,"end of experiment, AEPU group",700 (320–1200) mL
same,AF end,[8],40 and 54 and 50 and 48 and 45 and 39 and 44
same,FiO2 end,[8],0.4 and 0.8 and 0.5 and 1
same,PaO2 end,[8],19.9 and 13.4 and 12 and 19.5 and 12.2 and 4.4 and 8.7
same,CO 3 h,[9],3.2 L/min and 5.3 L/min and 3.6 L/min and 3.3 L/min and 5.7 L/min and 3.1 L/min and 4.2 L/min
same,CVP 3 h,[9],15 mmHg and 21 mmHg and 14 mmHg and 10 mmHg and 17 mmHg and 18 mmHg and 13 mmHg and 16 mmHg
same,HR 3 h,[9],141 and 137 and 175 and 135 and 140 and 119 and 162 and 144 and 164 and 114
same,MAP 3 h,[9],110 mmHg and 107 mmHg and 58 mmHg and 72 mmHg and 94 mmHg and 79 mmHg and 88 mmHg and 106 mmHg and 52 mmHg and 99 mmHg
same,MPAP 3 h,[9],65 mmHg and 39 mmHg and 41 mmHg and 43 mmHg and 46 mmHg and 47 mmHg and 54 mmHg and 51 mmHg and 55 mmHg
same,PCWP 3 h,[9],21 mmHg and 15 mmHg and 17 mmHg and 19 mmHg
same,PaCO2 3 h,[9],4.9 kPa and 5.9 kPa and 6.6 kPa and 5.6 kPa and 6.5 kPa and 5.2 kPa and 5.7 kPa and 6.9 kPa and 7.7 kPa and 5.8 kPa
